Experimental data from US9902722B2, “Biaryl kinase inhibitors” (BRISTOL-MYERS SQUIBB COMPANY, priority 2014, dated 2018).

Each compound was assayed against GST-Xa-hAAK1 (Homo sapiens (Human), UniProt Q2M2I8) (assay: AAK1 Kinase Assay). Details: bacterially expressed GST-Xa-hAAK1 3.5 nM; ATP 22 μM; peptide substrate 1.5 μM; 3 hours at room temperature; Caliper LabChip 3000.
Type: biochemical
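Also: each compound tested across an eleven-point concentration series, with IC50 obtained through non-linear regression fitting.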

Chain of GST-Xa-hAAK1 (Q2M2I8 whole entry): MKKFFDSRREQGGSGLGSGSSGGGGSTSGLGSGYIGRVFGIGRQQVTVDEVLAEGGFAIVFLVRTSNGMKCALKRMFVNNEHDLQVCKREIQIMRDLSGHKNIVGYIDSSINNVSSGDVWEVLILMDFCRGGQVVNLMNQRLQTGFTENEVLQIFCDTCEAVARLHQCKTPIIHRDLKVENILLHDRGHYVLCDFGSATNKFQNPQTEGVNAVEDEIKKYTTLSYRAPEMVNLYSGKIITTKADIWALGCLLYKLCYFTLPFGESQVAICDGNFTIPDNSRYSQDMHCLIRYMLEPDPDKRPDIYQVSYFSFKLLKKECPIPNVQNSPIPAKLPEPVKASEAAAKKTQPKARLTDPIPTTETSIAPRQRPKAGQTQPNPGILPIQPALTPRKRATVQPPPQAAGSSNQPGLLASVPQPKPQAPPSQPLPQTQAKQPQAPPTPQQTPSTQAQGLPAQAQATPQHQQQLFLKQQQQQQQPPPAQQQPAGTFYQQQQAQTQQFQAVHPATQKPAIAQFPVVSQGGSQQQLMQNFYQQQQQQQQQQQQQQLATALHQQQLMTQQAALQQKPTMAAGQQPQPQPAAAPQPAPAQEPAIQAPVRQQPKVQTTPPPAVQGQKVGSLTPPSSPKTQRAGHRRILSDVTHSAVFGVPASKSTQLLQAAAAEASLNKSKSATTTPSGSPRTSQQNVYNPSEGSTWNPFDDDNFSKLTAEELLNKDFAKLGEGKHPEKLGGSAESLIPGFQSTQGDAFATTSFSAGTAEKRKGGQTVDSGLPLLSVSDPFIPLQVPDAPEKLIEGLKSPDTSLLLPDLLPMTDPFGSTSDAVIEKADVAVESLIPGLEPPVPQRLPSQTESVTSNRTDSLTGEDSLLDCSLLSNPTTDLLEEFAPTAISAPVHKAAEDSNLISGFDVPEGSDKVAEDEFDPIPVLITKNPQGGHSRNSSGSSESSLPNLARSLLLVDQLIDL

Row | SMILES | IC50 [nM]
1 | COC(=O)Nc1cc(-c2ccc(OC[C@@](C)(N)CC(C)C)c(C3CC3)c2)ccn1 [Example 33, (S)-methyl (4-(4-((2-amino-2,4-dimethylpentyl)oxy)-3-cyclopropylphenyl)pyridin-2-yl)carbamate] | 0.32
2 | Cc1cc(-c2ccc(OC[C@@](C)(N)CC(C)C)c(C)n2)ccn1 [Example 65, (S)-1-((2′,6-dimethyl-[2,4′-bipyridin]-5-yl)oxy)-2,4-dimethylpentan-2-amine] | 42
3 | Cc1cc(-c2ccnc3cc(F)ccc23)ncc1OC[C@@](C)(N)CC(C)C [Example 232, (S)-1-((6-(7-fluoroquinolin-4-yl)-4-methylpyridin-3-yl)oxy)-2,4-dimethylpentan-2-amine] | 0.41
4 | Cc1cc(-c2ccnc3ccc(Cl)cc23)ncc1OC[C@@](C)(N)CC(C)C [Example 229, (S)-1-((6-(6-chloroquinolin-4-yl)-4-methylpyridin-3-yl)oxy)-2,4-dimethylpentan-2-amine] | 1
5 | CC(C)C[C@](C)(N)COc1ccc(-c2ccnc(F)c2)cc1F [Example 93, (S)-1-(2-fluoro-4-(2-fluoropyridin-4-yl)phenoxy)-2,4-dimethylpentan-2-amine] | 33
6 | CC(C)C[C@@](C)(N)COc1cnc(-c2ccnc3ccccc23)cc1C(F)(F)F [Example 165, (R)-2,4-dimethyl-1-((6-(quinolin-4-yl)-4-(trifluoromethyl)pyridin-3-yl)oxy)pentan-2-amine] | 21
7 | COC(=O)Nc1cc(-c2cc(C(F)F)c(OC[C@](N)(CF)CC(C)C)cn2)ccn1 [Example 181, (S)-methyl (5-((2-amino-2-(fluoromethyl)-4-methylpentyl)oxy)-4-(difluoromethyl)-[2,4′-bipyridin]-2′-yl)carbamate] | 1.9
8 | Cc1ccc2c(-c3cnc(OC[C@@](C)(N)CC(C)C)c(C(F)F)c3)ccnc2c1 [Example 205, (S)-1-((3-(difluoromethyl)-5-(7-methylquinolin-4-yl)pyridin-2-yl)oxy)-2,4-dimethylpentan-2-amine] | 0.7
9 | CC(C)C[C@](C)(N)COc1ccc(-c2ccnc3ccccc23)cc1C(F)(F)F [Example 69, (S)-2,4-dimethyl-1-(4-(quinolin-4-yl)-2-(trifluoromethyl)phenoxy)pentan-2-amine] | 0.76
10 | CC(C)C[C@](C)(N)COc1ccc(-c2ccnc(C(F)F)c2)cc1OC(F)(F)F [Example 38, (S)-1-(4-(2-(difluoromethyl)pyridin-4-yl)-2-(trifluoromethoxy)phenoxy)-2,4-dimethylpentan-2-amine] | 0.79
11 | CC(C)C[C@](C)(N)COc1ncc(-c2ccnc3ccncc23)cc1C#N [Example 80, (S)-2-((2-amino-2,4-dimethylpentyl)oxy)-5-(1,6-naphthyridin-4-yl)nicotinonitrile] | 19
12 | CC(C)C[C@](C)(N)COc1ccc(-c2ccnc3cc(F)ccc23)nc1C(F)F [Example 128, (S)-1-((2-(difluoromethyl)-6-(7-fluoroquinolin-4-yl)pyridin-3-yl)oxy)-2,4-dimethylpentan-2-amine] | 3.5
13 | CC(C)C[C@](C)(N)COc1cnc(-c2ccnc3cc(F)ccc23)cc1Cl [Example 241, (S)-1-((4-chloro-6-(7-fluoroquinolin-4-yl)pyridin-3-yl)oxy)-2,4-dimethylpentan-2-amine] | 0.86
14 | CC(C)C[C@](C)(N)COc1cnc(-c2ccnc(C(F)F)c2)cc1C(F)F [Example 124, (S)-1-((2′,4-bis(difluoromethyl)-[2,4′-bipyridin]-5-yl)oxy)-2,4-dimethylpentan-2-amine] | 1.2
15 | COC(=O)Nc1cc(-c2ccc(OC[C@@H](N)CC(C)C)c(-c3ccno3)c2)ccn1 [Example 14, (S)-methyl (4-(4-((2-amino-4-methylpentyl)oxy)-3-(isoxazol-5-yl)phenyl)pyridin-2-yl)carbamate] | 0.87
16 | Cc1cc(-c2cnc(OC[C@@](C)(N)CC(C)C)c(C(F)(F)F)c2)ccn1 [Example 221, (S)-2,4-dimethyl-1-((2′-methyl-5-(trifluoromethyl)-[3,4′-bipyridin]-6-yl)oxy)pentan-2-amine] | 4.1
